Reference: US9205064B2, “Methods for the diagnosis of oncological disorders using epimetabolic shifters, multidimensional intracellular molecules, or environmental influencers” (Berg LLC, priority 2009, dated 2015)

Test system: oncogenic and normal cell lines
Assay: Minimal CoQ10 concentration and treatment time for induction of early apoptosis (Bcl-2, caspase activation, annexin V)
Format: cell-based
Experimental: CoQ10 treatment of cells was carried out as described in detail below in the Materials and Methods. Induction of apoptosis was assessed in the treated cells by monitoring indicators of early apoptosis (e.g., Bcl-2 expression, caspase activation and by using annexin V assays) as described below. From these studies, the minimal CoQ10 dosage, e.g., concentration of CoQ10 and time of treatment, required to induce apoptosis in the panel of cell lines was determined.
Cells were cultured in T-75 flasks with relevant medium supplemented with 10% Fetal Bovine Serum (FBS), 1% PSA (penicillin, streptomycin, amphotericin B) (Invitrogen and Cellgro) in a 37° C. incubator with 5% CO2 levels until 70-80% confluence was reached. To harvest cells for treatment, flasks were primed with 1 mL Trypsin, aspirated, trypsinized with an additional 3 mL, and incubated at 37° C. for 3-5 minutes. Cells were then neutralized with an equal volμme of media and the subsequent solution was centrifuged at 10,000 rpm for 8 minutes. The supernatant was aspirated and the cells were resuspended with 8.5 ml of media. A mixture of 500 ul of the resuspension and 9.5 ml of […] was read twice by a coulter counter and the appropriate number of cells to be seeded into each dish was determined Control and concentration ranging from 0-200 μM groups were examined in triplicate. From a 500 μM CoQ-10 stock solution, serial dilutions were performed to achieve desired experimental concentration in appropriate dishes. Dishes were incubated in a 37° C. incubator with 5% CO2 levels for 0-72 hours depending on cell type and experimental protocol.
Following cell treatment incubation period was complete, protein isolation was performed. Dishes of all treatment groups were washed twice with 2 ml, and once with 1 ml of ice cold 1× Phosphate Buffered Saline (PBS). The PBS was aspirated from the dishes after the initial 2 washes only. Cells were gently scraped and collected into microcentrifuge tubes using the final volume from the third wash and centrifuged at 10,000 rpm for 10 minutes. After centrifugation, the supernatant was aspirated and the pellet was lysed with 50 uL of lysis buffer (1 uL of protease and phosphotase inhibitor for every 100 uL of lysis buffer). Samples were then frozen overnight at −20° C.
After the cell treatment incubation period was complete, protein isolation was performed. Flasks of all treatment groups were washed twice with 5 mL, and once with 3 mL of ice cold 1×PBS. The PBS was aspirated from the flasks after the first 2 washes only. Cells were gently scraped and collected into 15 mL centrifuge tubes using the final volume from the third wash and centrifuged for at 10,000 rpm for 10 minutes. After centrifugation, the supernatant was aspirated and the pellet was lysed with an appropriate amount of lysis buffer (1 uL of protease and phosphotase inhibitor for every 100 uL of lysis buffer). Lysis buffer volume was dependent on pellet size. Samples were transferred in microcentrifuge tubes and frozen overnight at −20° C.
Samples were thawed at […] and sonicated to ensure homogenization the day following protein isolation. Protein quantification was performed using the micro BCA protein assay kit (Pierce). To prepare samples for Immuno-blotting, a 1:19 solution of betamercaptoethanol (Sigma) to sample buffer (Bio-Rad) was prepared. Samples were diluted 1:1 with the betamercaptoethanol-sample buffer solution, boiled at 95° C. for 5 minutes, and frozen overnight at −20° C.
The volume of sample to load per well was determined using the raw mean concentration of protein obtained from the BCA protein assay. Approximately 30-60 μg of protein were loaded for each treatment time point. Proteins were run in triplicate on 12% Tris-HCl ready gels (Bio-Rad) or hand cast gels in 1× running buffer at 85 and 100 volts. Proteins were then transferred onto nitrocellulose paper for an hour at 100 volts, and blocked for another hour in a 5% milk solution. […]

SMILES: COC1=C(OC)C(=O)C(C/C=C(\C)CC/C=C(\C)CC/C=C(\C)CC/C=C(\C)CC/C=C(\C)CC/C=C(\C)CC/C=C(\C)CC/C=C(\C)CC/C=C(\C)CCC=C(C)C)=C(C)C1=O [Q10, Coenzyme Q10]
- Indication of Early apoptosis (Bcl-2, annexin V, or caspase activation) (BONE: Ewing's sarcoma (NCI)): Extremely strong
- Minimal CoQ10 Concentration for early apoptosis (BONE: Ewing's sarcoma (NCI)): 5 µM
- Minimal treatment Time for early apoptosis (BONE: Ewing's sarcoma (NCI)): 1 h
- Indication of Early apoptosis (Bcl-2, annexin V, or caspase activation) (BONE: Osteosarcoma (143b)): Very Strong
- Minimal CoQ10 Concentration for early apoptosis (BONE: Osteosarcoma (143b)): 50 µM
- Minimal treatment Time for early apoptosis (BONE: Osteosarcoma (143b)): 48 h
- Indication of Early apoptosis (Bcl-2, annexin V, or caspase activation) (BREAST: BT-20): Strong
- Minimal CoQ10 Concentration for early apoptosis (BREAST: BT-20): 100 µM
- Minimal treatment Time for early apoptosis (BREAST: BT-20): 48 h
- Indication of Early apoptosis (Bcl-2, annexin V, or caspase activation) (BREAST: MCF-7): Strong
- Minimal CoQ10 Concentration for early apoptosis (BREAST: MCF-7): 50 µM
- Minimal treatment Time for early apoptosis (BREAST: MCF-7): 48 h
- Indication of Early apoptosis (Bcl-2, annexin V, or caspase activation) (BREAST: MDA MB 468): Strong
- Minimal CoQ10 Concentration for early apoptosis (BREAST: MDA MB 468): 100 µM
- Minimal treatment Time for early apoptosis (BREAST: MDA MB 468): 48 h
- Indication of Early apoptosis (Bcl-2, annexin V, or caspase activation) (BREAST: SkBr-3): Very Strong
- Minimal CoQ10 Concentration for early apoptosis (BREAST: SkBr-3): 50 µM
- Minimal treatment Time for early apoptosis (BREAST: SkBr-3): 24 h
- Indication of Early apoptosis (Bcl-2, annexin V, or caspase activation) (BREAST: ZR-75): Slight
- Minimal CoQ10 Concentration for early apoptosis (BREAST: ZR-75): 200 µM
- Minimal treatment Time for early apoptosis (BREAST: ZR-75): 72 h
- Indication of Early apoptosis (Bcl-2, annexin V, or caspase activation) (Fibroblasts (nFib)): None
- Indication of Early apoptosis (Bcl-2, annexin V, or caspase activation) (Heart: Aortic smooth muscle (HASMC)): None
- Indication of Early apoptosis (Bcl-2, annexin V, or caspase activation) (Keratinocytes (Heka, Hekn)): None
- Indication of Early apoptosis (Bcl-2, annexin V, or caspase activation) (LIVER: Hep3B): Very Strong
- Minimal CoQ10 Concentration for early apoptosis (LIVER: Hep3B): 50 µM
- Minimal treatment Time for early apoptosis (LIVER: Hep3B): 24 h
- Indication of Early apoptosis (Bcl-2, annexin V, or caspase activation) (LIVER: HepG2): Very Strong
- Minimal CoQ10 Concentration for early apoptosis (LIVER: HepG2): 50 µM
- Minimal treatment Time for early apoptosis (LIVER: HepG2): 24 h
- Indication of Early apoptosis (Bcl-2, annexin V, or caspase activation) (Mammary fiboblasts: 184A1 and 184B5): None
- Indication of Early apoptosis (Bcl-2, annexin V, or caspase activation) (Melanocytes (Hema, LP)): None
- Indication of Early apoptosis (Bcl-2, annexin V, or caspase activation) (Melanoma (Skmel 2)): Very Strong
- Minimal CoQ10 Concentration for early apoptosis (Melanoma (Skmel 2)): 25 µM
- Minimal treatment Time for early apoptosis (Melanoma (Skmel 2)): 24 h
- Indication of Early apoptosis (Bcl-2, annexin V, or caspase activation) (Melanoma (Skmel 28)): Strong
- Minimal CoQ10 Concentration for early apoptosis (Melanoma (Skmel 28)): 20 µM
- Minimal treatment Time for early apoptosis (Melanoma (Skmel 28)): 24 h
- Indication of Early apoptosis (Bcl-2, annexin V, or caspase activation) (PANCREAS: PaCa2): Very Strong
- Minimal CoQ10 Concentration for early apoptosis (PANCREAS: PaCa2): 25 µM
- Minimal treatment Time for early apoptosis (PANCREAS: PaCa2): 24 h
- Indication of Early apoptosis (Bcl-2, annexin V, or caspase activation) (PROSTATE: PC3): Very Strong
- Minimal CoQ10 Concentration for early apoptosis (PROSTATE: PC3): 25 µM
- Minimal treatment Time for early apoptosis (PROSTATE: PC3): 24 h
- Indication of Early apoptosis (Bcl-2, annexin V, or caspase activation) (SCC, Squamous cell carcinoma): Very Strong
- Minimal CoQ10 Concentration for early apoptosis (SCC, Squamous cell carcinoma): 25 µM
- Minimal treatment Time for early apoptosis (SCC, Squamous cell carcinoma): 24 h
- effect on normal cells, including keratinocytes and dermal fibroblasts (normal tissue environment): increased proliferation and migration
- efficacy of treatment (induction of apoptosis) across cell types (panel of oncogenic and normal cell lines): greater in cell types that exhibited increased oncogenicity and/or greater metastatic potential
